For assay [1], the target named is Eukaryotic translation initiation factor 4H (Homo sapiens, UniProt Q15056). As to the kind of experiment: eIF4H binding inhibition – biochemical, uHTS, fluorescence polarization, translation initiation inhibitor project, primary screen (AID 2012).
Assay [2] addresses Polyadenylate-binding protein 1 (Homo sapiens, UniProt P11940). As to the kind of experiment: blockers of PABP interaction with poly(A) – biochemical, fluorescence polarization, […] (AID 2014). (Fluorescence polarisation rises when a labelled molecule tumbles more slowly, as on binding a larger partner.)
For the next assay, the target named is Cytochrome P450 2C9 (Homo sapiens, UniProt P11712). The conditions noted are these: Potency.
Chain of Cytochrome P450 2C9 (P11712 whole entry): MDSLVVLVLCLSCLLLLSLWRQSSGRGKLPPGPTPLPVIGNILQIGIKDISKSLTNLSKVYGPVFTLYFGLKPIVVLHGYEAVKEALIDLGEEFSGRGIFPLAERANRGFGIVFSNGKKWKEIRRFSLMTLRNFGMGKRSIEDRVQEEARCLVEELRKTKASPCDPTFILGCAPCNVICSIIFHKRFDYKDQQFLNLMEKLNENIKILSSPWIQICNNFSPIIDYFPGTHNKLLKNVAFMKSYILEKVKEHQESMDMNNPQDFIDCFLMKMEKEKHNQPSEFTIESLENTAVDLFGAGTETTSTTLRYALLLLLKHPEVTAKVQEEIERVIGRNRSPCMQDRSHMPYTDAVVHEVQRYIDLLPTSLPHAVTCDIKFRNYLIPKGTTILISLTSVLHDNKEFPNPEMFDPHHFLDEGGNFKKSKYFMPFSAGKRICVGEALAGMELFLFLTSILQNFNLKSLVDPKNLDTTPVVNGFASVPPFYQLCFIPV
Assay [3] has as its target Peroxisome proliferator-activated receptor gamma/Nuclear receptor coactivator 2 (Homo sapiens, UniProt P37231). As to the kind of experiment: TR-FRET dose response biochemical High Throughput Screening assay for agonists of the steroid receptor coactivator 2 (SRC-2) recruitment by the peroxisome proliferator-activated receptor gamma (PPAR gamma): non-selective agonists. [Related pubchem assays: 1297, 1032 ]. In kind it is functional. (In TR-FRET formats the signal depends on donor and acceptor labels being close together.)

In assay [4] the target is Peroxisome proliferator-activated receptor gamma/Nuclear receptor corepressor 2 (Homo sapiens, UniProt P37231+Q9Y618). In kind it is functional.
Assay [5] deals with Peroxisome proliferator-activated receptor gamma/Nuclear receptor coactivator 1 (Homo sapiens, UniProt P37231). As to the kind of experiment: TR-FRET dose response biochemical High Throughput Screening assay for agonists of the steroid receptor coactivator 1 (SRC-1) recruitment by the peroxisome proliferator-activated receptor gamma (PPAR gamma): non-selective agonists. [Related pubchem assays (depositor defined):AID1300, AID1808, AID504735, AID631]. In kind it is protein assay.

For assay [6], the target named is Peroxisome proliferator-activated receptor gamma/Nuclear receptor coactivator 3 (Homo sapiens, UniProt P37231). Nature of the assay: TR-FRET dose response biochemical High Throughput Screening assay for agonists of the steroid receptor coactivator 3 (SRC-3) recruitment by the peroxisome proliferator-activated receptor gamma (PPAR gamma): non-selective agonists. [Related pubchem assays: 1301 (Confirmation screen.), 1048 (Primary screen.)]. In kind it is functional.

For assay [7], the target named is Photoreceptor-specific nuclear receptor (Homo sapiens, UniProt Q9Y5X4). In kind it is functional.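 Further: potency for compounds that break the NR2E3 corepressor complex and count as activators.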
Chain of Photoreceptor-specific nuclear receptor (Q9Y5X4 whole entry): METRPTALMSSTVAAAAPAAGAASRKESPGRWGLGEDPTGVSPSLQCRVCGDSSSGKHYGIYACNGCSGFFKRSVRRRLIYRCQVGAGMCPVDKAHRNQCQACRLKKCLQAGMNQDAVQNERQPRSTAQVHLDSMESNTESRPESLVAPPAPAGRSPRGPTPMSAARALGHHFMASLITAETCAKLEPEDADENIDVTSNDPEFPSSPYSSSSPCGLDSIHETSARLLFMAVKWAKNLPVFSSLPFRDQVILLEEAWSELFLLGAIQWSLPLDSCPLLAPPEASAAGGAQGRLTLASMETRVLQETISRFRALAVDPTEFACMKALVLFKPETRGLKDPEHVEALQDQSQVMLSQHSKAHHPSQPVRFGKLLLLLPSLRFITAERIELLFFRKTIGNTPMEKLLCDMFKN
For another assay, the target named is T1, Leucine aminopeptidase (Plasmodium falciparum 3D7, UniProt Q8IL11).
T1 sequence (Q8IL11 whole entry): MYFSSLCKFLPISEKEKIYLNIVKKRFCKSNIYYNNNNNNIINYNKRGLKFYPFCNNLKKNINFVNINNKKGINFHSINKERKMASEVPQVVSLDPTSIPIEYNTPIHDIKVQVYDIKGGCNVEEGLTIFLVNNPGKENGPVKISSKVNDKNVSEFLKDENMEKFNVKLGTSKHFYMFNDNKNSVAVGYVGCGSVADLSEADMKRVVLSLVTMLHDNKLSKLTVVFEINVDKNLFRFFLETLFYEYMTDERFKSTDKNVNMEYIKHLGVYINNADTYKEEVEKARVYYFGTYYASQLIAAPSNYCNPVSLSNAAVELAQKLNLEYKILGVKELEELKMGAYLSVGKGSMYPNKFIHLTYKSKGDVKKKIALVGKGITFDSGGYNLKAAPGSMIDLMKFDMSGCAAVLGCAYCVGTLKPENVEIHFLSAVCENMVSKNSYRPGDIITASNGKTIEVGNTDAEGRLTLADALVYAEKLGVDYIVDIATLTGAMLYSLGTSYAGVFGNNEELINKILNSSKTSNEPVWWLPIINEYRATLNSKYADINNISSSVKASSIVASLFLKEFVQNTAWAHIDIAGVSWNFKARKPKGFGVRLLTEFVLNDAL
As to the kind of experiment: P. falciparum M17LAP inhibitors, primary screen, biochemical, fluorogenic H-Leu-NHMec substrate, 1536-well (AID 1619). In kind it is functional.

Another assay addresses Procathepsin L (Homo sapiens, UniProt P07711).
The target of the next assay is Aspartyl aminopeptidase (Plasmodium falciparum 3D7, UniProt Q8I2J3).
Chain of Aspartyl aminopeptidase (Q8I2J3 whole entry): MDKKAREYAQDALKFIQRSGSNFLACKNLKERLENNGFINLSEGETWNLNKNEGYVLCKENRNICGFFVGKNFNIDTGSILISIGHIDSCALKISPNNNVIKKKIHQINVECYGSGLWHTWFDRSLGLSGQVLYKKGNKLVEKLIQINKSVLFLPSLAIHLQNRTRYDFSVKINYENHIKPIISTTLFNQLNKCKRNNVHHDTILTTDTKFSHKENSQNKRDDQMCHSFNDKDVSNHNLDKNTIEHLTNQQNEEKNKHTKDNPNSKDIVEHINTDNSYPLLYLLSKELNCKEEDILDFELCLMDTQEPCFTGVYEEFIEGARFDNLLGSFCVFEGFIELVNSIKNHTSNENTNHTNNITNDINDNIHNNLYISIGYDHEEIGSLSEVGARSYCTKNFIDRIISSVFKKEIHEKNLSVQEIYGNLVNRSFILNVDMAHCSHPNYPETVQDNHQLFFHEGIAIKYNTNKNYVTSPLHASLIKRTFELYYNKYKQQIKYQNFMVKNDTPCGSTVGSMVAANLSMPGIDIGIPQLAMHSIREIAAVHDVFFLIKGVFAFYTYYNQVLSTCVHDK
Assay [8] deals with T2, Heat shock factor protein 1 (Mus musculus, UniProt P38532).
T2 sequence (P38532 whole entry): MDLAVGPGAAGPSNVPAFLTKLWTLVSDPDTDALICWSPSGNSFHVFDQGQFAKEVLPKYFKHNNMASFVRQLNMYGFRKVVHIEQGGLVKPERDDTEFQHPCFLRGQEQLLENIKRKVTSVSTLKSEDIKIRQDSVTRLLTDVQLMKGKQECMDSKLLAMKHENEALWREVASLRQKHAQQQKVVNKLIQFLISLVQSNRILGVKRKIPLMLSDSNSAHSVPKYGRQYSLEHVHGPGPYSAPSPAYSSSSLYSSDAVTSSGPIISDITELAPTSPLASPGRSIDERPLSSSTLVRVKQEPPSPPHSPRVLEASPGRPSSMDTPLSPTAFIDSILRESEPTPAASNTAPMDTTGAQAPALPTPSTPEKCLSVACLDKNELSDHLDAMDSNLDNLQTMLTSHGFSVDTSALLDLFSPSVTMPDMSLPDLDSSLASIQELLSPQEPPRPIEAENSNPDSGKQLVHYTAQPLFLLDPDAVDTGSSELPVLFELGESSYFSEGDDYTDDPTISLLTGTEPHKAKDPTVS
Nature of the assay: decrease of HSF1-responsive luciferase luminescence – cell-based, NIH3T3, dose retest, confirmation (AID 2382).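 Further: NIH3T3 fibroblasts with HSF1-driven luciferase reporter stressed by proteasome inhibitor MG132; luminescence from HSF1-driven luciferase expression after 8 hours of MG132 stress.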 In kind it is functional.

Assay [9] addresses Lysosomal acid glucosylceramidase (Homo sapiens, UniProt P04062). As to the kind of experiment: Dose response cell-based high throughput screening assay to identify enhancers of beta-glucosidase activity. [Related pubchem assays: 784 ]. In kind it is functional.
In the next assay the target is T3, Insulin-degrading enzyme (Homo sapiens, UniProt P14735).
T3 sequence (P14735 whole entry): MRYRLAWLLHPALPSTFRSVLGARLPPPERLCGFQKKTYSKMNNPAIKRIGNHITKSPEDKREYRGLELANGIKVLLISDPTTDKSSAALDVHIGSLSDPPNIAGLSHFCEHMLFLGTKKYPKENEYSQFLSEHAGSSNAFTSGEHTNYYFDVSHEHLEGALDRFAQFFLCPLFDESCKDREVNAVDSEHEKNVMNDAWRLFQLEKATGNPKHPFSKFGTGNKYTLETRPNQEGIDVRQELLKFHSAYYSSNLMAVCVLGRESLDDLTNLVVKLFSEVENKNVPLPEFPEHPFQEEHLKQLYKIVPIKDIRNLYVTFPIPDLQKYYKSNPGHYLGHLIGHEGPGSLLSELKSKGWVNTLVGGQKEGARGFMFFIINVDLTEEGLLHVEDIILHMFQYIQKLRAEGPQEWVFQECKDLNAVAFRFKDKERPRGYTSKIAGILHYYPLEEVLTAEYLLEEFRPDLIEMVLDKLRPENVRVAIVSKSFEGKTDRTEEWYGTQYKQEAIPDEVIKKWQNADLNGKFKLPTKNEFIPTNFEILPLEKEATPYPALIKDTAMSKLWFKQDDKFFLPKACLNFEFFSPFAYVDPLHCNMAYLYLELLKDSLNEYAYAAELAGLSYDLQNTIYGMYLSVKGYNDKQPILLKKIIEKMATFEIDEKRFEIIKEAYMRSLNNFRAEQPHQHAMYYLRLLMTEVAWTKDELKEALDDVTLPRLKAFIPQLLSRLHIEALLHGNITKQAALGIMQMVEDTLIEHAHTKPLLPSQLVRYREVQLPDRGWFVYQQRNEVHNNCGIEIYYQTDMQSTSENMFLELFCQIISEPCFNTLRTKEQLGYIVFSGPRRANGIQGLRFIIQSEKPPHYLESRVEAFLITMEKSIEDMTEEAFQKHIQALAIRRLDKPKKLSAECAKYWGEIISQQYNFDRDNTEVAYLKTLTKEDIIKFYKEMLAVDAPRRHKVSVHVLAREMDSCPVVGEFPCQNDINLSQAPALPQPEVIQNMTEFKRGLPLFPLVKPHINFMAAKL
As to the kind of experiment: Dose Response: Fluorescence polarization-based cell-based high throughput dose response assay for inhibitors of insulin-degrading enzyme (IDE). [Related pubchem assays: 434962 (Primary screen (IDE inhibitors in singlicate)), 449730 (Counterscreen (Cytotoxicity in triplicate)), 435028 (Confirmation (IDE inhibitors in triplicate)), 434984 (Summary …. In kind it is functional.

Assay [10] in a line: viability of uninfected HEp-2 cells – cell-based, HTS, cytotoxicity control for RSV inhibitor project, dose response (AID 2410). In kind it is functional. The conditions noted are these: human respiratory syncytial virus.
A short description of assay [11]: Counterscreen for IDE inhibitors: Luminescence-based cell-based high throughput dose response assay to identify compounds that are cytotoxic to HEK cells. [Related pubchem assays: 434962 (Primary screen (IDE inhibitors in singlicate)), 449730 (Counterscreen (Cytotoxicity in triplicate)), 435028 (Confirmation (IDE inhibitors in triplicate)) …. In kind it is functional. Particulars: HEK293. (In general: Counterscreens check selectivity or assay interference.)

A further assay has as its target Cytochrome P450 3A4 (Homo sapiens, UniProt P08684). The conditions noted are these: Potency.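 Further: confirmatory qHTS run detecting inhibitors and substrates of CYP3A4.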
Assay [12] deals with Acyl-homoserine lactone acylase PvdQ (Pseudomonas aeruginosa (strain LESB58), UniProt Q9I194). As to the kind of experiment: PvdQ acylase enzyme activity blockers – biochemical, fluorescence, plate reader and imaging, cherry-picks, dose response (AID 493231).
Chain of Acyl-homoserine lactone acylase PvdQ (Q9I194 24-193 limits assumed): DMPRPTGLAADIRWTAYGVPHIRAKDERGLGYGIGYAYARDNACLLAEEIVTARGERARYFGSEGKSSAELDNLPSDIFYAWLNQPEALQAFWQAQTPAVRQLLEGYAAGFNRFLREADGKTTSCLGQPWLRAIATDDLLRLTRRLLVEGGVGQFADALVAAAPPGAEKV
Chain of Acyl-homoserine lactone acylase PvdQ (Q9I194 217-762 limits assumed): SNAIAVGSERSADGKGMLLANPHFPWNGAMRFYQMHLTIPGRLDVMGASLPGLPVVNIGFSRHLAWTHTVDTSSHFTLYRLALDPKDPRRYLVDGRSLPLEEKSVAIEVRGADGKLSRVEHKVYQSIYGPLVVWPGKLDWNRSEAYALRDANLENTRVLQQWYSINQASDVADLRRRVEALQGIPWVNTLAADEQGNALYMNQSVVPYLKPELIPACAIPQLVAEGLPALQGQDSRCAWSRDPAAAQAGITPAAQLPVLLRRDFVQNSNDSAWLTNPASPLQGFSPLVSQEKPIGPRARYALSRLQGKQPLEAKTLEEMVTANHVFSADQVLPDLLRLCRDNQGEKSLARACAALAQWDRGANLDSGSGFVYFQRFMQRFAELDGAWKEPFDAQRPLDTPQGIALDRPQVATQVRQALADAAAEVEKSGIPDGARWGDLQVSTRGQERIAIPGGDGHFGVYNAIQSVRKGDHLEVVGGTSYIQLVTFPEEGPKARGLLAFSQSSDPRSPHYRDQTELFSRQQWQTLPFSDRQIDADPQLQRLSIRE

These results are taken from ChEMBL document CHEMBL1201862, “PubChem BioAssay data set” (2004).

The source made the active and inactive calls. A value given as a limit tells only on which side of the number the result lay.

Chain of Cytochrome P450 3A4 (P08684 whole entry): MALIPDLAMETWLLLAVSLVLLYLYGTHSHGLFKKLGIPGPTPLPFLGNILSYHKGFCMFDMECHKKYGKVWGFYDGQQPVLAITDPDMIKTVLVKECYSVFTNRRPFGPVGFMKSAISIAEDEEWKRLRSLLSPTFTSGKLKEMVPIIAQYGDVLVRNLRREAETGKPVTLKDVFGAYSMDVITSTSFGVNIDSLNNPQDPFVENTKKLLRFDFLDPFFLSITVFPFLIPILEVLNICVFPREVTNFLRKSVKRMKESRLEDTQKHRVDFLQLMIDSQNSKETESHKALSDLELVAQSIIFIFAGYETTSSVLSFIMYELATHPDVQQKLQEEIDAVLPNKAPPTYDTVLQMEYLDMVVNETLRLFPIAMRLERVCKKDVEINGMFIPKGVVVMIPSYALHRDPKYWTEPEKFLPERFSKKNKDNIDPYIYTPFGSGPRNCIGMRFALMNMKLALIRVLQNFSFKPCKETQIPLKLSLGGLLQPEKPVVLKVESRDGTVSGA
Chain of Lysosomal acid glucosylceramidase (P04062 whole entry): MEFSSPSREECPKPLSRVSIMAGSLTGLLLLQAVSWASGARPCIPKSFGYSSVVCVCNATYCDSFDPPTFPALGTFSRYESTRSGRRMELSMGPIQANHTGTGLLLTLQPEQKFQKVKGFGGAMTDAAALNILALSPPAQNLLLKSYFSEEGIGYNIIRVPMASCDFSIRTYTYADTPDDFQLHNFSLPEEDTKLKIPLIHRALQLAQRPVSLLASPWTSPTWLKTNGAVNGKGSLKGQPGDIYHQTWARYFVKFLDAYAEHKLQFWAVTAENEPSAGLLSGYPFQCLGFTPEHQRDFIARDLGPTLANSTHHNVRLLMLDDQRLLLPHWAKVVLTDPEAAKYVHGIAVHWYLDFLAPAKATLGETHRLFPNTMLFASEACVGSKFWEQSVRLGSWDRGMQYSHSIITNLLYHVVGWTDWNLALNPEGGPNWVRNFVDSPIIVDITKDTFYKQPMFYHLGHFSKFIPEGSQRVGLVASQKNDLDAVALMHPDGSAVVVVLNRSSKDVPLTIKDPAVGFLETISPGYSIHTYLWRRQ
Chain of Polyadenylate-binding protein 1 (P11940 whole entry): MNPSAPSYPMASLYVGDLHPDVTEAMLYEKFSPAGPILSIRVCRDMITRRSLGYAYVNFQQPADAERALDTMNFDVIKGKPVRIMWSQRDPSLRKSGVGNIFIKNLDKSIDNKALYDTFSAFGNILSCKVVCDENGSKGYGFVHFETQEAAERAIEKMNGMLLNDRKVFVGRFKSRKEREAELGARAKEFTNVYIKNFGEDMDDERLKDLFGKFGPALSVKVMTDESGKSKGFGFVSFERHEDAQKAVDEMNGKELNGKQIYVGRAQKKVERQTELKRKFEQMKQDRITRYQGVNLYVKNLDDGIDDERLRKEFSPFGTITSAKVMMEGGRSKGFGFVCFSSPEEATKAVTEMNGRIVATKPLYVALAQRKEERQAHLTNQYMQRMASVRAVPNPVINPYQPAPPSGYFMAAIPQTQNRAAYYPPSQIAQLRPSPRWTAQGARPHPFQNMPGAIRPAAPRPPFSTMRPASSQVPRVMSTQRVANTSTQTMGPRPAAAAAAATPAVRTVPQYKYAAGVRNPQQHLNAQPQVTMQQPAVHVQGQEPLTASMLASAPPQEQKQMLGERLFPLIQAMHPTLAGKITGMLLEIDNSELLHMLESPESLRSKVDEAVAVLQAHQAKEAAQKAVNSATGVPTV
Chain of Procathepsin L (P07711 whole entry): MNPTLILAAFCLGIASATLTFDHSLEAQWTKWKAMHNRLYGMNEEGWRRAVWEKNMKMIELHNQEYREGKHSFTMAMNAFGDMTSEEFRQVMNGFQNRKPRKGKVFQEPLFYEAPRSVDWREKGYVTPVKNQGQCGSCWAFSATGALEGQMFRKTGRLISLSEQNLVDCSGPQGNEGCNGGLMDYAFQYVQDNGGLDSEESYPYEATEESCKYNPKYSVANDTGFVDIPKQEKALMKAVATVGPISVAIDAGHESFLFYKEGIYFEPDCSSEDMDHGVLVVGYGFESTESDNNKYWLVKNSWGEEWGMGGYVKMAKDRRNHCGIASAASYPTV

`Cn1c(SCC(=O)NC(C)(C)C)nnc1-c1cccc(NC(=O)c2ccccc2F)c1`: the IC50 (as a rule, the midpoint of a concentration-inhibition curve) in assay [1] is > 100 µM (inactive); in assay [2] it was 7.07 µM (active).
Turning to `C[C@]12C=CC(=O)C=C1CC[C@@H]1[C@H]3C[C@@H](O)[C@](O)(C(=O)CO)[C@]3(C)C[C@H](O)[C@]12F`, the half-maximal activity concentration (AC50) (usually the concentration at which the activity in the assay is half-maximal) on Cytochrome P450 2C9 is 25.1 µM (inconclusive).
For the molecule `Cn1c(=S)[nH]c2c(c1=O)C(C)(C)Cc1ccccc1-2`, the concentration giving a half-maximal response (EC50) (as a rule, the concentration at which the effect is half-maximal) in assay [3] is > 79.4 µM (not active); in assay [5], > 79.4 µM (inactive); in assay [6], > 79.4 µM (not active). Further, the concentration for half-maximal inhibition (IC50) in assay [4] was 3.98 µM (active); in [7], > 39.8 µM (not active); on Leucine aminopeptidase it was 1.9 µM (active).
`Cc1c(C(=O)c2no[n+]([O-])c2C(=O)c2cnn(C)c2C)cnn1C`: the figures for the half-maximal inhibitory concentration (IC50) against Procathepsin L and on Aspartyl aminopeptidase were > 59.6 µM (not active) and 1.58 µM (active), respectively. In addition, the half-maximal effective concentration (EC50) in [8] is 5.9 µM (active).
As to `Cc1cccn2c(=O)c(/C=N/c3ccc(Cl)cc3)c(NCCO)nc12`, in assay [9], the half-maximal effective concentration (EC50) is on record as > 50 µM (not active).
Take `Cc1ccc(NC2=NC(=O)/C(=C/c3cn(C)c4ccccc34)S2)cc1C`: the half-inhibitory concentration (IC50) at Insulin-degrading enzyme is given as 18.4 µM (not active); in assay [11], 16.5 µM (not active). Moreover, the cytotoxic concentration (CC50) (commonly the concentration giving 50% cytotoxicity) in [10] was 6.5 µM (active).
Turning to `Nc1ccc(Cl)cc1Cl`, on Cytochrome P450 3A4, the concentration at half-maximal activity (AC50) is 31.6 µM (inconclusive).
`CCOC(=O)c1ccc(N2Cc3ccccc3C2)cc1O`: in assay [12], the AC50 was > 100 µM (inactive).
